The record followed here is US20080306076A1, “MODULATION OF CHEMOSENSORY RECEPTORS AND LIGANDS ASSOCIATED THEREWITH” (SENOMYX, INC., priority 2007, published 2008).

For experiment [1], the system named is un-induced I-17 cells. Briefly: FLIPR assay on un-induced I-17 cells (no receptor expression). Type of experiment: cell-based. As to conditions: monosodium glutamate. The procedure: In order to determine the dependency of hT1R1/hT1R3 for the cell response to different stimuli, selected compounds were subjected to a similar analysis on I-17 cells that had not been induced for receptor expression with mifepristone (designated as un-induced I-17 cells). […] Compounds were presented to un-induced umami cells at […]—or three times the maximum stimulation used in the dose-response analysis.

Experiment [2] has as its target T1, hT1R1/hT1R3 (Homo sapiens, UniProt Q7RTX1).
T1 construct: expressed in transfected cells; host or cells: HEK293 derivative stably expressing Gα15, clone I-17, mifepristone-induced
T1 sequence (Q7RTX1 21-841): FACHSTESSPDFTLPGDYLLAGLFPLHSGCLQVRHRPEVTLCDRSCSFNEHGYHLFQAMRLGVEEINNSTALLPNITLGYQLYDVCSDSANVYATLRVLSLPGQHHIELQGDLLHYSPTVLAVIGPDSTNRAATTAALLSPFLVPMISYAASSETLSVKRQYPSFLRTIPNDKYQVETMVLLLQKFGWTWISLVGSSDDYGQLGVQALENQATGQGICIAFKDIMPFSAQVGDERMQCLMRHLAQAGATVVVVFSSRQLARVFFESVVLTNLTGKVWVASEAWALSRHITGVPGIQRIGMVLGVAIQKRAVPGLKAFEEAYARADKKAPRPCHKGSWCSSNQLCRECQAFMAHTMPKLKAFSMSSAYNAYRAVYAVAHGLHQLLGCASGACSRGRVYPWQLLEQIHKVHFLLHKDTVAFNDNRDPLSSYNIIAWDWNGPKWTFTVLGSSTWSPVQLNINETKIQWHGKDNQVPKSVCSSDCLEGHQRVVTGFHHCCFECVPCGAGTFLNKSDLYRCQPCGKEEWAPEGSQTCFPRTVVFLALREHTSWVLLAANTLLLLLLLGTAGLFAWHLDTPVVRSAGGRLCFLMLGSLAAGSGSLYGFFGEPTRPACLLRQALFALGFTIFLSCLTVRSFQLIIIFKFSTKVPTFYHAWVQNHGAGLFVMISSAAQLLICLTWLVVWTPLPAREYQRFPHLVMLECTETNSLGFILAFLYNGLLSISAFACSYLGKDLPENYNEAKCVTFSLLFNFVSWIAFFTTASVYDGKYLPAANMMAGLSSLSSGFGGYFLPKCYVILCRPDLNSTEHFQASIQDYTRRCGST
T1 sequence (Q7RTX0 21-852 partner): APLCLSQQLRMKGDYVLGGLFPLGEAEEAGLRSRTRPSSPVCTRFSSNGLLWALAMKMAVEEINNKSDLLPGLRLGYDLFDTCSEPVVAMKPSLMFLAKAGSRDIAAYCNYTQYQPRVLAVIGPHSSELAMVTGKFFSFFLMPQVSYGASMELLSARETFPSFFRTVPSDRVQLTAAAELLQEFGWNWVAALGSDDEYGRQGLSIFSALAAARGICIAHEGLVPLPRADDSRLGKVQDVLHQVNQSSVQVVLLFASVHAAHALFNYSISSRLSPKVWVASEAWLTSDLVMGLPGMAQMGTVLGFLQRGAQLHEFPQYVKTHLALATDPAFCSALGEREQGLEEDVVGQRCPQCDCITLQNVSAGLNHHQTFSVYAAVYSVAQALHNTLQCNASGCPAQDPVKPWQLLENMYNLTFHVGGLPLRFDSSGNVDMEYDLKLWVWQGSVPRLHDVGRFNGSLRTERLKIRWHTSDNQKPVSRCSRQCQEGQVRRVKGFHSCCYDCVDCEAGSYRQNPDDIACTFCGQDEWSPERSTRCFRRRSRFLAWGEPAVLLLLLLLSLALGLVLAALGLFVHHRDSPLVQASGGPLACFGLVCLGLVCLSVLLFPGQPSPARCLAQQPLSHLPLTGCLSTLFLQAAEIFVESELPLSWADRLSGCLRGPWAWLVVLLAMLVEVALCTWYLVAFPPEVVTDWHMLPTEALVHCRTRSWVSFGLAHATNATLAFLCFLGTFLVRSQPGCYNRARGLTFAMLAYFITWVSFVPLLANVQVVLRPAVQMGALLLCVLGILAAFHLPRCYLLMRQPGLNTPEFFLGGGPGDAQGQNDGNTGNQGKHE
The experiment is described as follows: In vitro hT1R1/hT1R3 enhancement assay (FLIPR): shift of the monosodium glutamate EC50 (EC50R). The experiment is classed as cell-based. As to conditions: EC50 of monosodium glutamate without / with test compound. How it is done:
An HEK293 cell line derivative (See e.g., Chandrashekar, et al., Cell (2000) 100: 703-711) which stably expresses Gα15 and hT1R1/hT1R3 under an inducible promoter (see e.g., International Publication No. WO 03/001876 A2) was used in association with identifying compounds with umami tasting properties.
Compounds were initially selected based on activity in the hT1R1/hT1R3-HEK293-Gα15 cell line. Activity was determined using an automated fluorometric imaging assay on a FLIPR instrument (Fluorometric Intensity Plate Reader, Molecular Devices, Sunnyvale, Calif.) (designated FLIPR assay). Cells from one clone (designated clone I-17) were seeded into 384-well plates (at approximately 48,000 cells per well) in a medium containing Dulbecco's modified Eagle's medium (DMEM) supplemented with GlutaMAX (Invitrogen, Carlsbad, Calif.), 10% dialyzed fetal bovine serum (Invitrogen, Carlsbad, Calif.), 100 Units/ml Penicillin G, 100 μg/ml Streptomycin (Invitrogen, Carlsbad, Calif.) and 60 pM mifepristone (to induce expression of hT1R1/hT1R3 (see e.g., International Publication No. WO 03/001876 A2).
I-17 cells were grown for 48 hours at 37° C. 1-17 cells were then loaded with the calcium dye Fluo-3AM (Molecular Probes, Eugene, Oreg.), 4 μM in a phosphate buffered saline (D-PBS) (Invitrogen, Carlsbad, Calif.), for 1.5 hours at room temperature. After replacement with 25 μl D-PBS, stimulation was performed in the FLIPR instrument and at room temperature by the addition of 25 μl D-PBS supplemented with different stimuli at concentrations corresponding to twice the desired final level.
Receptor activity was quantified by determining the maximal fluorescence increases (using a 480 nm excitation and 535 nm emission) after normalization to basal fluorescence intensity measured before stimulation. For dose-responses analysis, stimuli were presented in duplicates at 10 different concentrations ranging from 1.5 nM to 3 μM.
Activities were normalized to the response obtained with 60 mM monosodium glutamate, a concentration that elicits maximum receptor response. EC50s (concentration of compound that causes 50% activation of receptor) were determined using a non-linear regression algorithm, where the Hill slope, bottom asymptotes and top asymptotes were allow to vary. Identical results were obtained when analyzing the dose-response data using commercially available software for non-linear regression analysis such as GraphPad PRISM (San Diego, Calif.).
Experiments were also conducted to determine if test compounds can enhance the effect of monosodium glutamate on hT1R1/hT1R3 activity. In this assay, increasing concentrations of monosodium glutamate (ranging from 12 μM to 81 mM) were presented, in duplicates, in the presence or absence of a fixed concentration of the test compound. Typical compound concentrations tested were 100 μM, 30 μM, 10 μM, 3 μM, 1 μM, 0.3 μM, 0.1 μM and 0.03 μM. The relative efficacy of compounds at enhancing the receptor was determined by the calculating the magnitude of a shift in the EC50 for monosodium glutamate.
Enhancement was defined as a ratio (EC50R) corresponding to the EC50 of monosodium glutamate, determined in the absence of the test compound, divided by the EC50 of monosodium glutamate, determined in the presence of the test compound. In some embodiments, compounds have an EC50R between about 0.7 and about 100. In other embodiments, compounds have an EC50R between about 1.25 and about 75. In still other embodiments, compounds have an EC50R between about 1.50 and about 60. Assay results for compounds are disclosed in the table below.

With `N[C@@H](CCC(=O)O)C(=O)[O-].[Na+]` [monosodium glutamate], the “functional response in FLIPR assay” value in experiment [1] is recorded as “do not show any functional response”.
In the case of `O=C(COc1ccccc1)Nc1nc(O)c2ncn([C@@H]3O[C@H](COP(=O)(O)O)[C@@H](O)[C@H]3O)c2n1` [Compound 5], the results for the EC50 ratio in experiment [2] (test compound 30 μM) and in experiment [2] (test compound 100 μM) were 1.21 and 2.22, respectively.
On to `COc1ccccc1C(=O)Nc1nc(O)c2ncn([C@@H]3O[C@H](COP(=O)(O)O)[C@@H](O)[C@H]3O)c2n1` [Compound 1], for which the EC50 ratio in experiment [2] (test compound 30 μM) was found to be 1.67; in experiment [2] (test compound 100 μM) it was 12.91.
With `Cc1cccc(C(=O)Nc2nc(O)c3ncn([C@@H]4O[C@H](COP(=O)(O)O)[C@@H](O)[C@H]4O)c3n2)c1` [Compound 4], the EC50 ratio came out at 1.07 in experiment [2] (test compound 30 μM) and 1.19 in experiment [2] (test compound 100 μM).
